# Results: patent US6936585B2, “Corticotropin releasing factor 2 receptor agonists” (priority 2002, dated 2005)
# Ends that are not written are not given here. Peptide text beside a SMILES is read from it.
# Key:
# CRF2R = target: T1, CRF2R (Homo sapiens, UniProt Q13324); assay: CRF2R agonist activation (EC50 / Emax), called comparative CRF binding; assay type: cell-based; settings: read-out: CRF2R Emax
# T1 sequence (Q13324 1-411): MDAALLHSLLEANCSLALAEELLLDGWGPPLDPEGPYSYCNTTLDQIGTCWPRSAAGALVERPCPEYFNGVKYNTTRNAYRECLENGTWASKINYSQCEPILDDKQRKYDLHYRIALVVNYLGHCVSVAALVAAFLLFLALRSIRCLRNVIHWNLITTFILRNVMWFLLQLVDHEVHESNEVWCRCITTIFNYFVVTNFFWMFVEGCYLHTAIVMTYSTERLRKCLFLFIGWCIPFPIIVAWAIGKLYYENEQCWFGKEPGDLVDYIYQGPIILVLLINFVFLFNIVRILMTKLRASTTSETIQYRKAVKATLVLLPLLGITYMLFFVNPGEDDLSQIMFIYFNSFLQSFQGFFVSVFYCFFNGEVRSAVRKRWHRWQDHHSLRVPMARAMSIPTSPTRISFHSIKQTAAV
# Source text: (§1) The pharmacological activity and selectivity of the peptides of present invention can be determined using published test procedures. See, e.g, U.S. patent application Ser. No. 09/799,978 (now issued U.S. Pat. No. 6,670,140). Because CRF2R and CRF1R are homologous proteins, it is expected that a certain proportion of agonists for CRF2R will also function as agonists of CRF1R. As discussed above, activation of CRF1R induces activation of the HPA axis since increased corticosteroid production leads to skeletal muscle atrophy. In most cases in which an increase in muscle mass or function is desired, it is not desirable to activate the HPA axis.
# (§2) Cell-based assays include the steps of contacting cells which express CRF1R or CRF2R with a peptide of the present invention or control and measuring activation of the CRFR by measuring the expression or activity of components of the CRFR signal transduction pathways.
# (§3) For example, after contact with a peptide of the present invention, lysates of the cells can be prepared and assayed for induction of cAMP. cAMP is induced in response to Gαs activation. Because Gαs is activated by receptors other than CRFR and because a test peptide may be exerting its effect through CRFRs or by another mechanism, two control comparisons are relevant for determining whether the peptide increases levels of cAMP via activation of a CRFR. One control compares the cAMP level of cells contacted with the peptide and the cAMP level of cells contacted with a control compound (i.e., the vehicle in which the peptide is dissolved).
# (§4) In one example, cAMP induction is measured with the use of DNA constructs containing the cAMP responsive element linked to any of a variety of reporter genes can be introduced into cells expressing CRFRs. Such reporter genes include, but are not limited to, chloramphenicol acetyltransferase (CAT), luciferase, glucuronide synthetase, growth hormone, fluorescent proteins (e.g., Green Fluorescent Protein), or alkaline phosphatase. Following exposure of the cells to the peptide, the level of reporter gene expression can be quantitated to determine the peptide's ability to increase cAMP levels and thus determine the peptide's ability to activate the CRFR.
# (§5) In addition to using cells expressing full length CRFRs, cells can be engineered which express CRFRs containing the ligand binding domain of the receptor coupled to, or physically modified to contain, reporter elements or to interact with signaling proteins. For example, a wild type CRFR or CRFR fragment can be fused to a G-protein resulting in activation of the fused G-protein upon agonist binding to the CRFR portion of the fusion protein. […] In addition, alternative pathways for induction of the CRE reporter could be eliminated to reduce basal levels.
# CRF1R = target: T2, CRF1R (Homo sapiens, UniProt P34998); assay: CRF1R agonist activation (EC50 / Emax), called comparative CRF binding; assay type: cell-based; settings: for Emax: read-out: CRF1R Emax; for EC50: read-out: CRF1R EC50
# T2 sequence (P34998 24-415): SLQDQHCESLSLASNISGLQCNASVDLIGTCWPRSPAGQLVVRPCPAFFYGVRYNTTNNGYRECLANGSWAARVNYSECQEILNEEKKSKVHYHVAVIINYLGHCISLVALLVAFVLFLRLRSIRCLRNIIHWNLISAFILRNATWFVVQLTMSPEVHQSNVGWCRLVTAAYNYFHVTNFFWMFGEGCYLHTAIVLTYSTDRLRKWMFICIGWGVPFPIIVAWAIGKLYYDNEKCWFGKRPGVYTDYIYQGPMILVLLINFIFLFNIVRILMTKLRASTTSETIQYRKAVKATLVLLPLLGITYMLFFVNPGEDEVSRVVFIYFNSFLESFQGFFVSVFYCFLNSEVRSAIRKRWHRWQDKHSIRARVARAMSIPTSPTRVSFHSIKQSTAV
# Source text: as §1, §2, §3, §4, §5
Compound,Emax (CRF2R) [%],Emax (CRF1R) [%],EC50 (CRF1R) [nM]
CC[C@H](C)[C@H](N)C(=O)N[C@H](C(=O)N[C@@H](CC(C)C)C(=O)N[C@@H](CO)C(=O)N[C@@H](CC(C)C)C(=O)N[C@@H](CC(=O)O)C(=O)N[C@H](C(=O)N1CCC[C@H]1C(=O)N[C@H](C(=O)NCC(=O)N[C@@H](CC(C)C)C(=O)N[C@@H](CC(C)C)C(=O)N[C@@H](CCC(N)=O)C(=O)N[C@@H](CCC(=O)O)C(=O)N[C@@H](CC(C)C)C(=O)N[C@@H](CC(C)C)C(=O)N[C@@H](CCC(=O)O)C(=O)N[C@@H](CCSC)C(=O)N[C@@H](C)C(=O)N[C@@H](CCCNC(=N)N)C(=O)N[C@@H](C)C(=O)N[C@@H](CCC(=O)O)C(=O)N[C@@H](CCC(N)=O)C(=O)N[C@@H](CC(C)C)C(=O)N[C@@H](C)C(=O)N[C@@H](CCC(N)=O)C(=O)N[C@@H](CCC(N)=O)C(=O)N[C@@H](C)C(=O)N[C@@H](Cc1c[nH]cn1)C(=O)N[C@@H](CO)C(=O)N[C@@H](CC(N)=O)C(=O)N[C@@H](CCCNC(=N)N)C(=O)N[C@@H](CCCCN)C(=O)N[C@@H](CC(C)C)C(=O)N[C@@H](CCSC)C(=O)N[C@@H](CCC(=O)O)C(=O)N[C@H](C(=O)N[C@H](C(N)=O)[C@@H](C)CC)[C@@H](C)CC)[C@@H](C)CC)C(C)C)C(C)C [compound 1] (H-IVLSLDVPIGLLQELLEMARAEQLAQQAHSNRKLMEII-NH2; N-terminus assumed),100,64,–
CC[C@H](C)[C@H](N)C(=O)N[C@H](C(=O)N[C@@H](CC(C)C)C(=O)N[C@@H](CO)C(=O)N[C@@H](CC(C)C)C(=O)N[C@@H](CC(=O)O)C(=O)N[C@H](C(=O)N1CCC[C@H]1C(=O)N[C@H](C(=O)NCC(=O)N[C@@H](CC(C)C)C(=O)N[C@@H](CC(C)C)C(=O)N[C@@H](CCC(N)=O)C(=O)N[C@H](C(=O)N[C@@H](CC(C)C)C(=O)N[C@@H](CC(C)C)C(=O)N[C@@H](CCC(=O)O)C(=O)N[C@@H](CCC(N)=O)C(=O)N[C@@H](CCC(=O)O)C(=O)N[C@@H](CCCCN)C(=O)N[C@@H](C)C(=O)N[C@@H](CCCNC(=N)N)C(=O)N[C@@H](C)C(=O)N[C@@H](C)C(=O)N[C@@H](CCCNC(=N)N)C(=O)N[C@@H](CCC(=O)O)C(=O)N[C@@H](CCC(N)=O)C(=O)N[C@@H](C)C(=O)N[C@H](C(=O)N[C@H](C(=O)N[C@@H](CC(N)=O)C(=O)N[C@@H](C)C(=O)N[C@@H](CCCNC(=N)N)C(=O)N[C@H](C(=O)N[C@@H](CC(C)C)C(=O)N[C@@H](C)C(=O)N[C@@H](CCCNC(=N)N)C(=O)N[C@H](C(N)=O)C(C)C)[C@@H](C)CC)[C@@H](C)O)[C@@H](C)O)[C@@H](C)CC)[C@@H](C)CC)C(C)C)C(C)C [compound 107] (H-IVLSLDVPIGLLQILLEQEKARAAREQATTNARILARV-NH2; N-terminus assumed),87.9,–,–
CC[C@H](C)[C@H](N)C(=O)N[C@H](C(=O)N[C@@H](CC(C)C)C(=O)N[C@@H](CO)C(=O)N[C@@H](CC(C)C)C(=O)N[C@@H](CC(=O)O)C(=O)N[C@H](C(=O)N1CCC[C@H]1C(=O)N[C@H](C(=O)NCC(=O)N[C@@H](CC(C)C)C(=O)N[C@@H](CC(C)C)C(=O)N[C@@H](CCC(N)=O)C(=O)N[C@H](C(=O)N[C@@H](CC(C)C)C(=O)N[C@@H](CC(C)C)C(=O)N[C@@H](CCC(=O)O)C(=O)N[C@@H](CCC(N)=O)C(=O)N[C@@H](C)C(=O)N[C@@H](CCCCN)C(=O)N[C@@H](C)C(=O)N[C@@H](CCCNC(=N)N)C(=O)N[C@@H](C)C(=O)N[C@@H](C)C(=O)N[C@@H](CCCNC(=N)N)C(=O)N[C@@H](CCC(=O)O)C(=O)N[C@@H](CCC(N)=O)C(=O)N[C@@H](C)C(=O)N[C@H](C(=O)N[C@H](C(=O)N[C@@H](CC(N)=O)C(=O)N[C@@H](C)C(=O)N[C@@H](CCCNC(=N)N)C(=O)N[C@H](C(=O)N[C@@H](CC(C)C)C(=O)N[C@@H](C)C(=O)N[C@@H](CCCNC(=N)N)C(=O)N[C@H](C(N)=O)C(C)C)[C@@H](C)CC)[C@@H](C)O)[C@@H](C)O)[C@@H](C)CC)[C@@H](C)CC)C(C)C)C(C)C [compound 127] (H-IVLSLDVPIGLLQILLEQAKARAAREQATTNARILARV-NH2; N-terminus assumed),–,–,> 100
CC[C@H](C)[C@H](N)C(=O)N[C@H](C(=O)N[C@@H](CC(C)C)C(=O)N[C@@H](CO)C(=O)N[C@@H](CC(C)C)C(=O)N[C@@H](CC(=O)O)C(=O)N[C@H](C(=O)N1CCC[C@H]1C(=O)N[C@H](C(=O)NCC(=O)N[C@@H](CC(C)C)C(=O)N[C@@H](CC(C)C)C(=O)N[C@@H](CCC(N)=O)C(=O)N[C@H](C(=O)N[C@@H](CC(C)C)C(=O)N[C@@H](CC(C)C)C(=O)N[C@@H](CCC(=O)O)C(=O)N[C@@H](CCC(N)=O)C(=O)N[C@H](C(=O)N[C@@H](CCCCN)C(=O)N[C@@H](C)C(=O)N[C@@H](CCCNC(=N)N)C(=O)N[C@@H](C)C(=O)N[C@@H](C)C(=O)N[C@@H](CCCNC(=N)N)C(=O)N[C@@H](CCC(=O)O)C(=O)N[C@@H](CCC(N)=O)C(=O)N[C@@H](C)C(=O)N[C@H](C(=O)N[C@H](C(=O)N[C@@H](CC(N)=O)C(=O)N[C@@H](C)C(=O)N[C@@H](CCCNC(=N)N)C(=O)N[C@H](C(=O)N[C@@H](CC(C)C)C(=O)N[C@@H](C)C(=O)N[C@@H](CCCNC(=N)N)C(=O)N[C@H](C(N)=O)C(C)C)[C@@H](C)CC)[C@@H](C)O)[C@@H](C)O)[C@@H](C)O)[C@@H](C)CC)[C@@H](C)CC)C(C)C)C(C)C [compound 129] (H-IVLSLDVPIGLLQILLEQTKARAAREQATTNARILARV-NH2; N-terminus assumed),–,–,> 100
CC[C@H](C)[C@H](N)C(=O)N[C@H](C(=O)N[C@@H](CC(C)C)C(=O)N[C@@H](CO)C(=O)N[C@@H](CC(C)C)C(=O)N[C@@H](CC(=O)O)C(=O)N[C@H](C(=O)N1CCC[C@H]1C(=O)N[C@H](C(=O)NCC(=O)N[C@@H](CC(C)C)C(=O)N[C@@H](CC(C)C)C(=O)N[C@@H](CCC(N)=O)C(=O)N[C@H](C(=O)N[C@@H](CC(C)C)C(=O)N[C@@H](CC(C)C)C(=O)N[C@@H](CCC(=O)O)C(=O)N[C@@H](CCC(N)=O)C(=O)N[C@@H](C)C(=O)N[C@@H](CCCNC(=N)N)C(=O)N[C@@H](C)C(=O)N[C@@H](CCCNC(=N)N)C(=O)N[C@@H](C)C(=O)N[C@@H](C)C(=O)N[C@@H](CCCNC(=N)N)C(=O)N[C@@H](CCC(=O)O)C(=O)N[C@@H](CCC(N)=O)C(=O)N[C@@H](C)C(=O)N[C@H](C(=O)N[C@H](C(=O)N[C@@H](CC(N)=O)C(=O)N[C@@H](C)C(=O)N[C@@H](CCCNC(=N)N)C(=O)N[C@H](C(=O)N[C@@H](CC(C)C)C(=O)N[C@@H](C)C(=O)N[C@@H](CCCNC(=N)N)C(=O)N[C@H](C(=O)N[C@@H](CCSC)C(N)=O)C(C)C)[C@@H](C)CC)[C@@H](C)O)[C@@H](C)O)[C@@H](C)CC)[C@@H](C)CC)C(C)C)C(C)C [compound 356] (H-IVLSLDVPIGLLQILLEQARARAAREQATTNARILARVM-NH2),–,9,–
SQEPPISLDLPLELLREVLEMTKADQLAQQAHSNRKLLDIA-NH2 [compound 89],12.7,–,–
